For assay [1], the system named is FCR3 strain (resistant to cycloguanyl) of Plasmodium falciparum. The assay is described as follows: Plasmodium falciparum growth inhibition (Giemsa smear count, 48 hours). The assay is classed as cell-based. To be noted: for IC50: Table 3, read-out: P. falciparum (IC50, μg/mL). How it is done: FCR3 strain (resistant to cycloguanyl) of Plasmodium falciparum isolated in Gambia was used in the experiment to assess anti-malarial activity. Plasmodium falciparum synchronized to a ring phase by sorbitol treatment was injected in 50 μL 96 well plate. The hematocrit value of the culture liquid is 2% and the infection ratio was 0.55%. A substance to be tested was dissolved in DMSO and diluted with medium to an appropriate concentration before 50 μL of a test compound solution was added to the above 96 well plate to the total volume of 100 μL. The final concentration of DMSO added was 1%. Subsequently, after incubation was effected at 37° C. for 48 hours, a sumea film prepared on a slide glass was stained with Giemsa solution. The number of infected erythrocyte among 1000 erythrocytes was counted under an optical microscope. Percent inhibition of malaria parasite growth was calculated for percent infection obtained under the presence of DMSO only and that under the presence of the compound to be tested. Quinine was used as a positive control.

In assay [2] the test system is Plasmodium berghei (NK65 line). As to the kind of experiment: In vivo antimalarial activity, four days inhibition effect in infected mouse. To be noted: ICR mouse; for Inhibition (%) / Averaged parasite blood (%): fourth day; for Averaged parasite blood (%): average ± SD of 5 mice. How it is done:
Four weeks old male mouse was bred at 25° C. under the condition of 12 hours light and 12 hours dark, and used in the assay.
Blood was corrected with a syringe from the heart of a donor mouse with 15 % of parasitaemia. To this blood, trisodium citrate aqueous solution was added in one seventh by volume to prevent coagulation of blood. The resulting solution was diluted with 0.9% aqueous sodium chloride solution so that the final concentration of infected blood cells is 1×10^7 per 0.2 ml. […]
To mouse (one group: 5), 0.2 ml of the infected erythrocytes was administered through tail vein. After 2 hours, the CMC solution (0.2 ml) of the respective concentration prepared above was orally administered. Starting with this time as 0 day, the solution was administered every day till a third day and infection ratio was examined on a fourth day. The infection ratio was determined by collecting blood from mouse tail, preparing smear, and counting infected erythrocytes using a microscope. The infection ratio of control mouse (5 infected mice administered only by the 0.5% CMC solution) was about 28% on the fourth day.
Percent growth inhibition of parasites by test compound was calculated from the following formula: Percent growth inhibition of parasites=(1−averaged infection ratio of mice treated with test compound/averaged infection ratio of control mice)×100
Life prolonging effect by test compound (T/C) was calculated from the following equation. Life Prolonging Effect (T/C)=averaged number of subsistence days of mouse treated by test compound/averaged number of subsistence days of control mouse

For the next assay, the system named is human cancer cell KB3-1. The assay is described as follows: KB3-1 cell growth inhibition (MTT) to examine toxicity. To be noted: for IC50: Table 3, read-out: KB3-1 (IC50, μg/mL); for Selective toxicity: IC50 (KB3-1)/IC50 (P. falciparum). The assay is classed as cell-based. How it is done:
To 100 μL (2×10^4/ml) of floating liquid of KB3-1 cells, 100 μL of test compound containing a liquid which was prepared by dissolving a test compound in DMSO and diluted to an appropriate concentration (final concentration of DMSO: 1%) was added. The mixture was incubated under 5% CO2 at 37° C. After 72 hours incubation, 25 μL of MTT reagent was added and incubation was effected for 3 hours before only medium was aspiratedly removed. To the medium 200 μL of DMSO was added, the resulting MTT folmazan was extracted and the amount of the dye was quantitatively measured by a calorimetric method (540 nm). The number of survival cell was counted from the amount of formed dye, and percent growth inhibition was determined to assess the toxic activity. Mitomycin C was used as a positive control.

The mark [3] stands for this setting: 25 mg/kg oral, day 0 to third day.
The mark [4] stands for this setting: 50 mg/kg oral, day 0 to third day.
Setting [5] is: 100 mg/kg oral, day 0 to third day.
Setting [6] is: 200 mg/kg oral, day 0 to third day.

Converted amounts (≈) assume the structure as drawn. Where two headings read alike, the source gives them in different places.

This is an account of results in patent US20050245600A1, “Novel antimalarial agent” (Osaka Bioscience Institute, priority 2002, published 2005).

For `C=C[C@H]1C[N@@]2CC[C@H]1C[C@H]2[C@H](O)c1ccnc2ccc(OC)cc12` [quinine, reference compound], the inhibition at 0.033 µg/mL in assay [1] (Table 1 control, 33 ng/mL, read-out: P. falciparum Growth Inhibition (%)) stood at 73%; in assay [1] (Table 2 control, 0.033 μg/mL, read-out: Inhibition of P. falciparum %) it was 62%; in assay [1] (Table 3 control, 0.033 μg/mL, read-out: P. falciparum inhibition) it was 36%. Also, the inhibition at 0.1 µg/mL in assay [1] (Table 1 control, 100 ng/mL, read-out: P. falciparum Growth Inhibition (%)) is 90%; in assay [1] (Table 2 control, 0.1 μg/mL, read-out: Inhibition of P. falciparum %) it was 90%; in assay [1] (Table 3 control, 0.1 μg/mL, read-out: P. falciparum inhibition), 82%.

In the case of `C[C@@H]1CC[C@H]2[C@@H](C)C(=O)O[C@@H]3O[C@@]4(C)CC[C@@H]1[C@]32OO4` [artemisinin, reference compound], in assay [2] (15 mg/kg), the Averaged subsistence days is reported as 10.3 ± 2.3 days, the “T/C (life prolonging effect)” value turned out to be 129, the “Inhibition (%)” value is on record as 54% and the “Averaged parasite blood (%)” value is 13.3 ± 1.6%.

For the compound `O=C1c2c(O)cc(O)c([C@@H]3C(=O)c4c(O)cc(O)cc4O[C@H]3c3ccc(O)cc3)c2O[C@H](c2ccc(O)cc2)[C@H]1O` [GK-4, 2R,3S,2′S,3′R-5,7,3′,5′,7′-pentahydroxy-2,2′-bis-(4-hydroxyphenyl)-2,3,2′,3′-tetrahydro-[3,8′]bichromenyl-4,4′-dione], the IC50 in assay [1] is 1.1 µg/mL (≈ 1.97 µM); in the assay with human cancer cell KB3-1 (Homo sapiens, KB 3-1) it was more than 100 µg/mL. The Selective toxicity in the assay on human cancer cell KB3-1 is on record as more than 91.

Turning to `O=C1c2c(O)cc(O)cc2O[C@H](c2ccc(O)cc2)[C@H]1c1c(O)cc(O)c2c1O[C@H](c1ccc(O)cc1)[C@@H](O)C2=O` [GK-2, 2S,3R,2′S,3′R-5,7,3′,5′,7′-pentahydroxy-2,2′-bis-(4-hydroxyphenyl)-2,3,2′,3′-tetrahydro-[3,8′]bichromenyl-4,4′-dione], the Averaged subsistence days in assay [2] (setting [3]) came out at 9.5 ± 1.7 days; in assay [2] (setting [4]), 10.0 ± 0.0 days; in assay [2] (setting [5]) it was 10.0 ± 0.0 days; in assay [2] (setting [6]), 11.0 ± 0.7 days. Also, the “T/C (life prolonging effect)” value in assay [2] (setting [3]) came to 119; in assay [2] (setting [4]), 125; in assay [2] (setting [5]), 125; in assay [2] (setting [6]), 134. In addition, the “Inhibition (%)” value in assay [2] (setting [3]) is 40%; in assay [2] (setting [4]) it was 43%; in assay [2] (setting [5]), 52%; in assay [2] (setting [6]), 60%. Moreover, the “Averaged parasite blood (%)” value is 17.3 ± 3.4% in assay [2] (setting [3]), 16.6 ± 2.4% in assay [2] (setting [4]), 13.9 ± 2.4% in assay [2] (setting [5]) and 11.5 ± 1.2% in assay [2] (setting [6]). Besides, the inhibition at 0.5 µg/mL in assay [1] (Table 2, 0.5 μg/mL, read-out: Inhibition of P. falciparum %) was 70%. Also, the inhibition at 5 µg/mL was 65% in assay [1] (Table 2, 5 μg/mL, read-out: Inhibition of P. falciparum %) and 22% in the assay with human cancer cell KB3-1 (Homo sapiens, KB 3-1, Table 2, 5 μg/mL). The IC50 in assay [1] was 0.09 µg/mL (≈ 0.161 µM); with human cancer cell KB3-1 (Homo sapiens, KB 3-1) it was more than 100 µg/mL. Moreover, the inhibition at 50 µg/mL in the assay with human cancer cell KB3-1 (Homo sapiens, KB 3-1, Table 2, 50 μg/mL) came to 10%. In the assay with human cancer cell KB3-1, the Selective toxicity was more than 1100.

Consider `O=C1c2c(O)cc(O)cc2O[C@H](c2ccc(O)cc2)[C@H]1c1c(O)cc(O)c2c1O[C@H](c1ccc(O)c(O)c1)[C@@H](O)C2=O` [GK-3, 2S,3R,2′S,3′R-2′-(3,4-dihydroxyphenyl)-5,7,3′,5′,7′-pentahydroxy-2-(4-hydroxyphenyl)-2,3,2′,3′-tetrahydro-[3,8′]bichromenyl-4,4′-dione], for which the IC50 in assay [1] was 0.12 µg/mL (≈ 0.209 µM); with human cancer cell KB3-1 (Homo sapiens, KB 3-1), more than 100 µg/mL. This compound also registered a Selective toxicity with human cancer cell KB3-1 of more than 830.

Consider `O=C1C[C@@H](c2ccc(O)cc2)Oc2c1c(O)cc(O)c2[C@H]1C(=O)c2c(O)cc(O)cc2O[C@@H]1c1ccc(O)cc1` [GK-1, 2S,3R,2′S-5,7,5′,7′-tetrahydroxy-2,2′-bis-(4-hydroxyphenyl)-2,3,2′,3′-tetrahydoro-[3,8′]bichromenyl-4,4′-dione], for which the IC50 in assay [1] was 0.35 µg/mL (≈ 0.645 µM); in the assay with human cancer cell KB3-1 (Homo sapiens, KB 3-1), 27 µg/mL (≈ 49.8 µM). This compound also came in with a Selective toxicity in the assay on human cancer cell KB3-1 of 77.

Usually inhibition stands for the percentage by which the read-out fell short of the control.
